In patent US20230011571A1, “SMALL MOLECULE FURIN INHIBITORS FOR TREATING INFECTIOUS DISEASES” (BP Asset V, Inc., priority 2019, published 2023):

Columns and labels:
Type in all cases: cell-based
[1] = tested on: Chikungunya virus (CHIKV); test: microbe, parasite or virus in culture; details: Chikungunya virus, Vero, 48 h, read-out: Percent viral inhibition CHKV
[2] = tested on: dengue virus (DENV); test: microbe, parasite or virus in culture; details: Dengue virus, Vero, 120 h, read-out: Percent viral inhibition DENY
[3] = tested on: Marburg virus (MARV); test: organism not typed; details: Vero, 72 h, read-out: Percent viral inhibition MARV

| Structure (SMILES) | inhibition at 1 µM [1] [%] | inhibition at 1 µM [2] [%] | inhibition at 1 µM [3] [%] |
| --- | --- | --- | --- |
| CC(=O)NCC1CCN(Cc2cc(Oc3ccc(N4CCN(CCC(=O)O)C(C)(C)C4)nc3)nc(-c3cc(Cl)cc(Cl)c3)c2)CC1 [Example 191] | 14.2 | 71.2 | 50.6 |
| CC(=O)NCC1CCN(Cc2cc(Oc3ccc(N4CCNC(CO)C4)nc3)nc(-c3cc(Cl)cc(Cl)c3)c2)CC1 (stereo not drawn) [Example 195, N-((1-((2-(3,5-dichlorophenyl)-6-((6-(3-(hydroxymethyl)piperazin-1-yl)pyridin-3-yl)oxy)pyridin-4-yl)methyl)piperidin-4-yl)methyl)acetamide] | 18.1 | 39.4 | 38.2 |
| CC(=O)NCC1CCN(Cc2cc(Oc3ccc(N4CCC5(CCNC5)C4)nc3)nc(-c3cc(Cl)cc(Cl)c3)c2)CC1 (stereo not drawn) [Example 199, N-((1-((2-((6-(2,7-diazaspiro[4.4]-nonan2-yl)pyridin-3-yl)oxy)-6-(3,5-dichlorophenyl)pyridin-4-yl)methyl)piperidin-4-yl)methyl)acetamide] | 21.6 | 49 | 18.5 |
| CN1C[C@@H]2C[C@H]1CN2c1ccc(Oc2cc(CN3CCC(CC(=O)O)CC3)cc(-c3cc(Cl)cc(Cl)c3)n2)cn1 [Example 203, 2-(1-((2-(3,5-dichlorophenyl)-6-((6-((1S,4S)-5-methyl-2,5-diazabicyclo[2.2.1]heptan-2-yl)pyridin-3-yl)oxy)pyridin-4-yl)methyl)piperidin-4-yl)acetic acid] | 23.6 | 7.17 | 55.2 |
| CC(CCN1CCN(c2ncc(Oc3cc(CN4CCC(CC(=O)O)CC4)cc(-c4cc(Cl)cc(Cl)c4)n3)cn2)CC1)S(C)(=O)=O (stereo not drawn) [Example 205, 2-(1-((2-(3,5-dichlorophenyl)-6-((2-(4-(3-(methylsulfonyl)butyl)piperazin-1-yl)pyrimidin-5-yl)oxy)pyridin-4-yl)methyl)piperidin-4-yl)acetic acid] | 23.7 | 57.6 | 77.6 |
| O=C(O)CC1CCN(Cc2cc(Oc3cnc(N4CCNCC4)nc3)nc(-c3cc(Cl)cc(Cl)c3)c2)CC1 [Example 206, 2-(1-((2-(3,5-dichlorophenyl)-6-((2-(piperazin-1-yl)pyrimidin-5-yl)oxy)pyridin-4-yl)methyl)piperidin-4-yl)acetic acid] | 34.4 | 29.3 | 50.8 |
| CN1CCN(c2ncc(Oc3cc(CN4CCC(CC(=O)O)CC4)cc(-c4cc(Cl)cc(Cl)c4)n3)cn2)CC1 [Example 207, 2-(1-((2-(3,5-dichlorophenyl)-6-((2-(4-methylpiperazin-1-yl)pyrimidin-5-yl)oxy)pyridin-4-yl)methyl)piperidin-4-yl)acetic acid] | 26.3 | 47.9 | 42.2 |
| CNC(=O)OCC1CCN(Cc2cc(Oc3cnc(N4CCN(C(C)CCC(=O)O)CC4)nc3)nc(-c3cc(Cl)cc(Cl)c3)c2)CC1 (stereo not drawn) [Example 208, 4-(4-(5-((6-(3,5-dichlorophenyl)-4-((4-(((methylcarbamoyl)oxy)methyl)piperidin-1-yl)methyl)pyridin-2-yl)oxy)pyrimidin-2-yl)piperazin-1-yl)pentanoic acid] | 46.3 | 68.6 | 55.2 |
| CNC(=O)OCC1CCN(Cc2cc(Oc3cnc(N4CCN(CCCS(C)(=O)=O)CC4)nc3)nc(-c3cc(Cl)cc(Cl)c3)c2)CC1 [Example 210, (1-((2-(3,5-dichlorophenyl)-6-((2-(4-(3-(methylsulfonyl)propyl)piperazin-1-yl)pyrimidin-5-yl)oxy)pyridin-4-yl)methyl)piperidin-4-yl)methylmethylcarbamate] | 3.75 | 21 | 32.6 |
| CNC(=O)OCC1CCN(Cc2cc(Oc3cnc(N4CCN(C5CC(C(=O)O)C5)CC4)nc3)nc(-c3cc(Cl)cc(Cl)c3)c2)CC1 (stereo not drawn) [Example 211, 3-(4-(5-((6-(3,5-dichlorophenyl)-4-((4-(((methylcarbamoyl)oxy)methyl)piperidin-1-yl)methyl)pyridin-2-yl)oxy)pyrimidin-2-yl)piperazin-1-yl)cyclobutanecarboxylic acid] | 44.7 | 13.3 | 62.5 |
| CC(CC1CCN(Cc2cc(Oc3ccc(N4CCN(C)CC4)nc3)nc(-c3cc(Cl)cc(Cl)c3)c2)CC1)C(=O)O (stereo not drawn) [Example 213, 3-(1-((2-(3,5-dichlorophenyl)-6-((6-(4-methylpiperazin-1-yl)pyridin-3-yl)oxy)pyridin-4-yl)methyl)piperidin-4-yl)-2-methylpropanoic acid] | 26.5 | 28 | 49.3 |
| CC(=O)NCC1CCN(Cc2cc(Oc3cnc(N4CCN(C(C)CCC(=O)O)CC4)nc3)nc(-c3cc(Cl)cc(Cl)c3)c2)CC1 (stereo not drawn) [Example 215, 4-(4-(5-((4-((4-(acetamidomethyl)piperidin-1-yl)methyl)-6-(3,5-dichlorophenyl)pyridin-2-yl)oxy)pyrimidin-2-yl)piperazin-1-yl)pentanoic acid] | 32.5 | 24.4 | 56.7 |
| CC(=O)NCC1CCN(Cc2cc(Oc3cnc(N4CCN(C5CC(C(=O)O)C5)CC4)nc3)nc(-c3cc(Cl)cc(Cl)c3)c2)CC1 (stereo not drawn) [Example 216] | 21.4 | 8.34 | 38.5 |
| CNC(=O)NCC1CCN(Cc2cc(Oc3cnc(N4CCN(C5CC(C(=O)O)C5)CC4)nc3)nc(-c3cc(Cl)cc(Cl)c3)c2)CC1 (stereo not drawn) [Example 221, 3-(4-(5-((6-(3,5-dichlorophenyl)-4-((4-((3-methylureido)methyl)piperidin-1-yl)methyl)pyridin-2-yl)oxy)pyrimidin-2-yl)piperazin-1-yl) cyclobutanecarboxylic acid] | 44.4 | 25.9 | 63.2 |
| COC(=O)NCC1CCN(Cc2cc(Oc3cnc(N4CCN(C(C)CCC(=O)O)CC4)nc3)nc(-c3cc(Cl)cc(Cl)c3)c2)CC1 (stereo not drawn) [Example 222, 4-(4-(5-((6-(3,5-dichlorophenyl)-4-((4-(((methoxycarbonyl)amino)methyl)piperidin-1-yl)methyl)pyridin-2-yl)oxy)pyrimidin-2-yl)piperazin-1-yl)pentanoic acid] | 25 | 17.6 | 60 |
| CN1CCN(c2ncc(Oc3cc(CN4CC[C@@H]5[C@H](CC4)[C@H]5CC(=O)O)cc(-c4cc(Cl)cc(Cl)c4)n3)cn2)CC1 [Example 224, 2-((1R,7S,8r)-4-((2-(3,5-dichloro-phenyl)-6-((2-(4-methylpiperazin-1-yl)pyrimidin-5-yl)oxy)pyridin-4-yl)methyl)-4-azabicyclo[5.1.0]octan-8-yl)acetic acid] | 33.1 | 72 | 52.3 |
| CN1CCN(c2ncc(Oc3cc(CN4CCC(OC(C)(C)C(=O)O)CC4)cc(-c4cc(Cl)cc(Cl)c4)n3)cn2)CC1 [Example 225, 2-((1-((2-(3,5-dichlorophenyl)-6-((2-(4-methylpiperazin-1-yl)pyrimidin-5-yl)oxy)pyridin-4-yl)methyl)piperidin-4-yl)oxy)-2-methylpropanoic acid] | 24.2 | 33.3 | 52.3 |
